Where two headings read alike, the source gives them in different places.
Legend:
PRMT5 [1] = biological target: T1, PRMT5 (Homo sapiens, UniProt O14744); test: PRMT5 biochemical IC50 assay with SAM as cofactor; settings: PRMT5, SAM as cofactor; read-out: SAM IC50
T1 construct: purchased Viva (custom protein)

PRMT5 [2] = biological target: T1, PRMT5; test: PRMT5 biochemical IC50 assay with no cofactor; settings: PRMT5, no cofactor
Source text: Table 1 indicates IC50 values (μM) against PRMT5 for exemplary compounds in the presence of SAM as cofactor, with no cofactor, and with MTA as cofactor, respectively (columns 4-6). […] Ki values can be calculated from the IC50 values as described in the Examples section. As detailed in the Examples section, for the assay performed in the presence of SAM, IC50=Ki×1.5 (Ki=IC50/1.5).

PRMT5 [3] = biological target: T1, PRMT5; test: PRMT5 biochemical IC50 assay with MTA as cofactor; settings: PRMT5, MTA as cofactor; read-out: MTA IC50
[4] = test system: HAP1 MTAP-intact cell line; test: SDMA in-cell western assay, HAP1 MTAP-intact; assay type: cell-based; settings: Homo sapiens
How it was run: (§1)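 Compounds were tested in HAP1 cells differing only in MTAP status (endogenous expression versus null). Cellular SDMA levels were then measured by in-cell western, giving an IC50 in each background.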

[5] = test system: HAP1 MTAP-deleted cell line; test: SDMA in-cell western assay, HAP1 MTAP-deleted; assay type: cell-based; settings: for IC50: Homo sapiens; for MTAP intact/deleted ratio: IC50 ratio HAP1 MTAP-intact / HAP1 MTAP-deleted, SDMA in-cell western
How it was run: as §1

[6] = test system: HAP1 MTAP-deleted cell line; test: Viability assay, MTAP-deleted cell line; assay type: cell-based; settings: Homo sapiens
Source text: Table 1 additionally indicates IC50 values in a viability assay for the MTAP-deleted cell line (column 10), indicating the effect of treatment with compound on cell survival.

[7] = HAP1, SDMA in-cell western, HAP1 MTAP-intact, read-out: MTAP HAP1 intact IC50
[8] = HAP1, SDMA in-cell western, HAP1 MTAP-deleted, read-out: HAP 1 MTAP deleted IC50
[9] = HAP1, viability assay, MTAP-deleted cell line, read-out: HAP1 MTAP deleted viability
[10] = HAP1, SDMA in-cell western, HAP1 MTAP-deleted, read-out: HAP1 MTAP deleted IC50
[11] = HAP1, viability assay, HAP1 MTAP-deleted, read-out: HAP1 MTAP deleted viability
[12] = HAP1, viability IC50, MTAP-deleted cell line, read-out: HAP1 MTAP deleted viability
[13] = read-out: No Cofactor/ rel IC50
[14] = HAP1, viability, HAP1 MTAP-deleted cell line, read-out: HAP1 MTAP deleted viability

T1 sequence (O14744 whole entry): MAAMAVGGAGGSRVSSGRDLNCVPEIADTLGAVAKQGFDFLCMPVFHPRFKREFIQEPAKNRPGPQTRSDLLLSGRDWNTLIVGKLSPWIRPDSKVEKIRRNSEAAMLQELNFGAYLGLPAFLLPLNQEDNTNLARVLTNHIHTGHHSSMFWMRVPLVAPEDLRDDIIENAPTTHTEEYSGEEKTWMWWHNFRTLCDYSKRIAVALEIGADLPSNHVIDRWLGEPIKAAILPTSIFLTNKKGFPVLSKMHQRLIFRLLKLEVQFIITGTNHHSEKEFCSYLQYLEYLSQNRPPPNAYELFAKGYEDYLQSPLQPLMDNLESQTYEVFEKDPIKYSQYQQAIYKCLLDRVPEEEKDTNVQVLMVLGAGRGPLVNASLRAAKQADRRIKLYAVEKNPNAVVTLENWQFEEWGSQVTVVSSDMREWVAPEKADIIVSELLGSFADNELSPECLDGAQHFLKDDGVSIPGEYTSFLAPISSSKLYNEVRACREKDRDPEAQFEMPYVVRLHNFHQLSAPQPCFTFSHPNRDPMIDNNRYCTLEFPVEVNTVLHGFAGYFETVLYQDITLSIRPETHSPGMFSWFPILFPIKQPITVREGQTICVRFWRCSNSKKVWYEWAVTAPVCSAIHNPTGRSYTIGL
T1 sequence (Q9BQA1 whole entry partner): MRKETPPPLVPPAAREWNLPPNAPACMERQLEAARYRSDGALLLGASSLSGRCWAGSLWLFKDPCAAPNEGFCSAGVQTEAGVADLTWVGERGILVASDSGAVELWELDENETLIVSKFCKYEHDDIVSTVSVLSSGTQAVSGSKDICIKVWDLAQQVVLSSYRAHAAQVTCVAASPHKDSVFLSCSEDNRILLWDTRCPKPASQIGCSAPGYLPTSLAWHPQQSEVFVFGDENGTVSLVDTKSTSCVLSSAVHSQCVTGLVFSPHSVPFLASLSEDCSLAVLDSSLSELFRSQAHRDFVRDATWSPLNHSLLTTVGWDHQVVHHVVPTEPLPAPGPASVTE

| Compound | IC50 (PRMT5 [1]) | IC50 (PRMT5 [2]; read-out: No Cofactor/rel IC50) | IC50 (PRMT5 [3]) | IC50 [4, 7] | IC50 [5, 8] | IC50 [5, 10] | IC50 (PRMT5 [2]; [13]) | MTAP intact/deleted ratio [5] | IC50 [6, 9] | IC50 [6, 11] | IC50 [6, 12] | IC50 [6, 14] | IC50 ([4]; HAP1, read-out: MTAP HAP1 intact IC50) | IC50 ([5]; HAP1, read-out: HAP1 MTAP deleted IC50) | IC50 ([6]; HAP1, read-out: HAP1 MTAP deleted viability) |
| --- | --- | --- | --- | --- | --- | --- | --- | --- | --- | --- | --- | --- | --- | --- | --- |
| COc1ncc(NC(=O)C(=O)N2C[C@@H](C)CC[C@@H]2c2cnc3c(c2)CCC(=O)N3)cc1C(N)=O (racemic) [Compound 891, rac-2-Methoxy-5-[[2-[(2S,5R)-5-methyl-2-(7-oxo-6,8-dihydro-5H-1,8-naphthyridin-3-yl)-1-piperidyl]-2-oxo-acetyl]amino]pyridine-3-carboxamide] | 50 to 500 nM | 50 to 500 nM | 50 to 500 nM | > 1000 nM | 100 to 1000 nM |  |  | A (an IC50 ratio greater than or equal to 10 fold) | > 10000 nM |  |  |  |  |  |  |
| C[C@@]1(F)CC[C@H](c2ccccc2)N(C(=O)C(=O)Nc2cncc(C(N)=O)c2)C1 (single isomer, unassigned) [Compound 795, 5-(2-(5-fluoro-5-methyl-2-phenylpiperidin-1-yl)-2-oxoacetamido)nicotinamide] | 50 to 500 nM | 50 to 500 nM | < 50 nM | > 1000 nM |  | < 100 nM |  | A (an IC50 ratio greater than or equal to 10 fold) |  | 1000 to 10000 nM |  |  |  |  |  |
| CCc1cc(NC(=O)C(=O)N2C[C@@H](C)CC[C@@H]2c2ccc(C(=O)NC)s2)cnc1N (single isomer, unassigned) [Compound 840] | 50 to 500 nM | < 50 nM | < 50 nM | 100 to 1000 nM |  | < 100 nM |  | A (an IC50 ratio greater than or equal to 10 fold) |  | < 1000 nM |  |  |  |  |  |
| CCc1cc(NC(=O)C(=O)N2C[C@H](C)CC[C@H]2c2ccc3sc(CCOC)nc3c2)cnc1N (single isomer, unassigned) [Compound 1375] | > 500 nM |  | > 500 nM | > 1000 nM | > 1000 nM |  | > 500 nM |  |  |  |  | > 10000 nM |  |  |  |
| CCc1cc(NC(=O)C(=O)N2C[C@@H](C)CC[C@@H]2c2ccc3sc(-c4ccnn4C)nc3c2)cnc1N [Compound 1389, N-(6-amino-5-ethylpyridin-3-yl)-2-((2R,5S)-5-methyl-2-(2-(1-methyl-1H-pyrazol-5-yl)benzo[d]thiazol-5-yl)piperidin-1-yl)-2-oxoacetamide] | 50 to 500 nM |  | < 50 nM | 100 to 1000 nM | < 100 nM |  | < 50 nM | A (an IC50 ratio greater than or equal to 10 fold) |  |  |  | < 1000 nM |  |  |  |
| C[C@@H]1CC[C@@H](c2ccc(N3CCCC3)nc2)N(C(=O)C(=O)Nc2cncc(C(N)=O)c2)C1 (racemic) [Compound 207, rac-5-{2-[(2R,5S)-5-methyl-2-[6-(pyrrolidin-1-yl)pyridin-3-yl]piperidin-1-yl]-2-oxoacetamido}pyridine-3-carboxamide] | > 500 nM | 50 to 500 nM | 50 to 500 nM | > 1000 nM |  | 100 to 1000 nM |  | A (an IC50 ratio greater than or equal to 10 fold) | 1000 to 10000 nM |  |  |  |  |  |  |
| CNc1ccc([C@H]2CC[C@H](C)CN2C(=O)C(=O)Nc2cncc(C(N)=O)c2)cc1 [Compound 438, 5-[[2-[(2R,5S)-5-methyl-2-[4-(methylamino)phenyl]-1-piperidyl]-2-oxo-acetyl]amino]pyridine-3-carboxamide] | < 50 nM | < 50 nM | < 50 nM | > 1000 nM |  | < 100 nM |  | A (an IC50 ratio greater than or equal to 10 fold) | < 1000 nM |  |  |  |  |  |  |
| C[C@@H]1CC[C@@H](c2cnc3[nH]ncc3c2)N(C(=O)C(=O)Nc2cncc(C(N)=O)c2)C1 (single isomer, unassigned) [Compound 550] | > 500 nM | > 500 nM | > 500 nM | > 1000 nM | > 1000 nM |  |  | C (an IC50 ratio of less than 3 fold) |  |  | > 10000 nM |  |  |  |  |
| CNc1cccc([C@@H]2CCCCN2C(=O)C(=O)Nc2cncc(C(N)=O)c2)c1 (single isomer, unassigned) [Compound 334] | 50 to 500 nM | 50 to 500 nM | < 50 nM | > 1000 nM |  | < 100 nM |  | A (an IC50 ratio greater than or equal to 10 fold) | 1000 to 10000 nM |  |  |  |  |  |  |
| COc1ncc(NC(=O)C(=O)N2C[C@@H](C)CC[C@@H]2c2ccc(NS(C)(=O)=O)cc2)cc1C(N)=O (single isomer, unassigned) [Compound 850] | > 500 nM | > 500 nM | > 500 nM | > 1000 nM |  | > 1000 nM |  | C (an IC50 ratio of less than 3 fold) |  | > 10000 nM |  |  |  |  |  |
| COc1ncc(NC(=O)C(=O)N2C[C@H](C)CC[C@H]2c2ccc3scnc3c2)cc1C(N)=O (single isomer, unassigned) [Compound 603] | > 500 nM | > 500 nM | > 500 nM |  |  |  |  | C (an IC50 ratio of less than 3 fold) |  |  |  |  | > 1000 nM | > 1000 nM | > 10000 nM |

Now from value to molecule, other results behind:

| IC50 (PRMT5 [1]) | IC50 (PRMT5 [2]; read-out: No Cofactor/rel IC50) | IC50 (PRMT5 [3]) | IC50 [4, 7] | IC50 [5, 8] | IC50 [5, 10] | IC50 (PRMT5 [2]; [13]) | Compound | MTAP intact/deleted ratio [5] | IC50 [6, 9] | IC50 [6, 11] | IC50 [6, 12] | IC50 [6, 14] | IC50 ([4]; HAP1, read-out: MTAP HAP1 intact IC50) | IC50 ([5]; HAP1, read-out: HAP1 MTAP deleted IC50) | IC50 ([6]; HAP1, read-out: HAP1 MTAP deleted viability) |
| --- | --- | --- | --- | --- | --- | --- | --- | --- | --- | --- | --- | --- | --- | --- | --- |
| 50 to 500 nM | 50 to 500 nM | < 50 nM | > 1000 nM |  | < 100 nM |  | Cc1cc(NC(=O)C(=O)N2C[C@@H](C)CC[C@@H]2c2cc(F)c(F)c(Cl)c2)cnc1N (single isomer, unassigned) [Compound 857] | A (an IC50 ratio greater than or equal to 10 fold) |  | 1000 to 10000 nM |  |  |  |  |  |
| 50 to 500 nM | 50 to 500 nM | < 50 nM | > 1000 nM |  | 100 to 1000 nM |  | CCc1cc(NC(=O)C(=O)N2C[C@@H](C)CC[C@@H]2c2ccc(F)cc2)cnc1C [Compound 779, N-(5-ethyl-6-methyl-3-pyridyl)-2-[(2R,5S)-2-(4-fluorophenyl)-5-methyl-1-piperidyl]-2-oxo-acetamide] | A (an IC50 ratio greater than or equal to 10 fold) |  | 1000 to 10000 nM |  |  |  |  |  |
| > 500 nM | > 500 nM | > 500 nM | > 1000 nM |  | > 1000 nM |  | CCc1cc(NC(=O)C(=O)N2C[C@H](C)CC[C@H]2c2ccc(N)nc2)cnc1N (single isomer, unassigned) [Compound 856] | B (an IC50 ratio greater than or equal to 3 fold but lower than 10 fold) |  | > 10000 nM |  |  |  |  |  |
| 50 to 500 nM | < 50 nM | < 50 nM | 100 to 1000 nM |  | < 100 nM |  | CNC(=O)c1ccc([C@H]2CC[C@H](C)CN2C(=O)C(=O)Nc2cnc(N)c(C)c2)s1 (single isomer, unassigned) [Compound 859] | A (an IC50 ratio greater than or equal to 10 fold) |  | < 1000 nM |  |  |  |  |  |
| > 500 nM | > 500 nM | 50 to 500 nM | > 1000 nM |  | > 1000 nM |  | CCc1cc(NC(=O)C(=O)N2C[C@@H](C)CC[C@@H]2c2ccccc2)cnc1N (single isomer, unassigned) [Compound 709] | C (an IC50 ratio of less than 3 fold) |  | > 10000 nM |  |  |  |  |  |
| 50 to 500 nM | 50 to 500 nM | < 50 nM | > 1000 nM | < 100 nM |  |  | C[C@H]1CC[C@H](c2cc(F)cc(Cl)c2)N(C(=O)C(=O)Nc2cncc(C(N)=O)c2)C1 (single isomer, unassigned) [Compound 615] | A (an IC50 ratio greater than or equal to 10 fold) |  |  | 1000 to 10000 nM |  |  |  |  |
| 50 to 500 nM | < 50 nM | < 50 nM | 100 to 1000 nM |  | < 100 nM |  | CCc1cc(NC(=O)C(=O)N2C[C@H](C)CC[C@H]2c2ccc(-c3cncs3)cc2)cnc1N (single isomer, unassigned) [Compound 841, N-(6-amino-5-ethylpyridin-3-yl)-2-(5-methyl-2-(4-(thiazol-5-yl)phenyl)piperidin-1-yl)-2-oxoacetamide] | A (an IC50 ratio greater than or equal to 10 fold) |  | < 1000 nM |  |  |  |  |  |
| > 500 nM | > 500 nM | > 500 nM | > 1000 nM | > 1000 nM |  |  | Cc1cc(NC(=O)C(=O)N2C[C@@H](C)CC[C@@H]2c2ccc(F)c(Cl)c2)cnc1N (single isomer, unassigned) [Compound 606] | B (an IC50 ratio greater than or equal to 3 fold but lower than 10 fold) |  |  | > 10000 nM |  |  |  |  |

Source: US11999727B2 (Tango Therapeutics, Inc., priority 2020, dated 2024)
